Source: patent US20260021159A1, “STABLE PEPTIDE COMPOSITIONS AND METHODS OF USE THEREOF FOR TREATMENT OF MODERATE/SEVERE DRY EYE-RELATED OCULAR SYMPTOMS” (TearSolutions, Inc., priority 2022, published 2026)
Entries after “also recorded” stand apart in the source; their conditions may differ.

How the values were obtained:
Format in all cases: in vivo, human
[1] = tested on: subjects with ocular surface disease associated with Primary Sjögren's Syndrome; assay: Corneal fluorescein staining (CFS, NEI scale) in Lacripep clinical study NCT 03226444
Protocol: (§1) The primary objective of this study was to evaluate the safety and tolerability of 22 and 44 μM Lacripep™ ophthalmic solution versus placebo (vehicle) administered three times daily for 28 days in subjects with a history of ocular surface disease associated with Primary Sjögren's Syndrome, including subjects with mild dry eye symptoms. Additionally, many dry eye signs and symptoms were assessed.
(§2) This was a multi-center, randomized, placebo-controlled, double-masked, parallel-group study conducted at 35 sites in the United States, and approved by local institutional review boards. Written informed consent was obtained from all subjects after review of risks and benefits of participation. The study was conducted in accordance with the Health Insurance Portability and Accountability Act of 1996 and Declaration of Helsinki of 1996 and registered at ClinicalTrials.gov: NCT 03226444.
(§3) The study duration was 56 days, including a 14-day run-in period, a 28-day active treatment period, and 14-day follow-up period (wash-out) (see FIG. 2). Measurements were collected at five scheduled visits.
Screening and Eligibility: At Visit 1 (Screening) informed consent was obtained from subjects and eligibility was determined requiring documentation of Primary Sjögren's Syndrome per the American-European Consensus Group Sjögren's Syndrome Criteria. Subjects were at least 18 years of age with a history of dry eye-related symptoms and use of eye-wetting agents within the past 120 days. Major inclusion criteria at the screening and subsequent baseline visits included: • 1. CFS total score >4 and <15 in the National Eye Institute Industry Workshop (NEI) scale (Protocol Appendix 6) • 2. Symptom Severity score of ≥40 using the Symptom Assessment in Dry Eye (SANDE) questionnaire • 3. Anesthetized Schirmer test score […] • 4. LGCS total score ≥5 using the NEI scale
(§4) Randomization and Treatment: At Visit 2 (Baseline/Randomization) eligibility was confirmed. All criteria were met in the same study eye. […] Eligible subjects were randomly assigned to one of the three treatment groups: one of two Lacripep™ ophthalmic solution strengths (22 μM or 44 μM) or placebo (vehicle).
(§5) One drop of investigational product was administered three times a day (TID) to both eyes for 28 days. At Visit 3 (Week 2) and Visit 4 (Week 4) efficacy and safety evaluations were performed. Subjects who discontinued before Visit 4 underwent Visit 4 evaluations (Early Termination).
(§6) Efficacy: All efficacy assessments were performed in both eyes, and by the same person if possible. […] Lissamine green conjunctival staining (LGCS) was assessed in 6 regions on a 0 to 3 scale (total 0 to 18). All sites were trained and tested on NEI scoring methodology.
The primary efficacy measurement was mean change from Baseline to Day 28 in CFS total score (NEI/Industry Workshop 0-15 scale, 0-3 scale in each of 5 regions) in the study eye. The key secondary efficacy measurement was mean change from Baseline to Day 28 in Eye Dryness Score (VAS from 0 to 100 mm) from Individual Symptom Assessments.
The change from Baseline in CFS to Day 14 and to post treatment follow-up (Day 42) were additional secondary measurements. Other secondary measurements included changes from baseline to Day 14 and Day 28 in the LGCS scores, TFBUT, and Schirmer tests. Secondary symptom measurements included changes from baseline to Day 14 and Day 28 in the SANDE and each of the Individual Symptom Assessments. […]

[2] = tested on: subjects with ocular surface disease associated with Primary Sjögren's Syndrome; assay: Lissamine green conjunctival staining (LGCS, NEI scale) in Lacripep clinical study
Protocol: as §1, §2, §3, §4, §5, §6
The change from Baseline in CFS to Day 14 and to post treatment follow-up (Day 42) were additional secondary measurements. Other secondary measurements included changes from baseline to Day 14 and Day 28 in the LGCS scores, TFBUT, and Schirmer tests. Secondary symptom measurements included changes from baseline to Day 14 and Day 28 in the SANDE and each of the Individual Symptom Assessments.
Post-Hoc Efficacy Analysis: Post-hoc, all primary and secondary endpoints were assessed for treatment effect controlling for baseline Eye Dryness Score (EDS) using analysis of covariance (ANCOVA). All ANCOVA models were fit using the Proc Mixed procedure in SAS. Post-hoc analysis was also performed using all observed data in the ITT set, without imputation. […] Subgroups were then evaluated according to baseline EDS.

[3] = tested on: subjects with ocular surface disease associated with Primary Sjögren's Syndrome; assay: Burning/Stinging individual symptom assessment (VAS) in Lacripep clinical study
Protocol: as §1, §2, §3, §4
One drop of investigational product was administered three times a day (TID) to both eyes for 28 days. […]
Tear film break-up time (TBUT) was measured in seconds. The Symptom Assessment in Dry Eye (SANDE) inventory version 1 and version 2 measured patient-rated symptom severity and frequency using a visual-analogue scale. The Individual Symptom Assessments (instantaneous and Reflective) measured patient-reported symptoms on a visual-analogue scale (VAS). […]
Post-Hoc Efficacy Analysis: Post-hoc, all primary and secondary endpoints were assessed for treatment effect controlling for baseline Eye Dryness Score (EDS) using analysis of covariance (ANCOVA). […] Subgroups were then evaluated according to baseline EDS.

[4] = 22 μM TID, day 14, prespecified analysis

Ac-Lys-Gln-Phe-Ile-Glu-Asn-Gly-Ser-Glu-Phe-Ala-Gln-Lys-Leu-Leu-Lys-Lys-Phe-Ser-NH2 (Ac-KQFIENGSEFAQKLLKKFS-NH2) [Lacripep™, synthetic 19 amino acid peptide fragment of lacritin]
Improvement in total CFS score vs placebo ([1]; 22 μM TID, day 14, baseline EDS set, p=0.03): 1.2
Improvement from baseline in inferior region CFS score vs. placebo [1, 4]: statistically significant
Treatment effect on inferior CFS after washout ([1]; 22 μM, day 42 post-treatment follow-up, subset baseline EDS): falling off after washout
Difference in inferior region CFS score vs. placebo ([1]; 44 μM TID (higher dose group), subset baseline EDS≥60): Positive (though not statistically significant) differences; also recorded: positive but not significant effect
Primary endpoint of CFS score at day 28 ([1]; day 28, change from baseline in CFS total score vs placebo): not met
Improvement in change from baseline LGCS total score vs. placebo ([2]; 22 μM TID, day 14, subset baseline EDS≥60, p=0.017): 1.5
Improvement in LGCS segment 5 vs. placebo ([2]; 22 μM TID, day 14, subset baseline EDS≥60, p=0.038): 0.4
Improvement in LGCS segment 1 vs. placebo ([2]; 22 μM TID, day 14, subset baseline EDS≥60, p=0.049): 0.4
Improvement in LGCS ([2]; prespecified secondary endpoint analysis): not statistically significant
Improvement from baseline in Burning/Stinging symptom (reflective VAS rating) vs. placebo [3, 4]: statistically significant
Burning/Stinging symptom vs placebo at later time points ([3]; both dose groups (22 and 44 μM), day 28 and day 42, not statistically significant): trend better than the placebo group
Burning/Stinging symptom treatment effect ([3]; both dose groups, day 28, subset baseline EDS of ≥60): positive but not significant effect
